Results as given in PubChem BioAssay AID192 (DTP/NCI, 2004).
“And” between values parts separate entries of the source, which are not always exact repeats. Equal values may be shown once. Inconclusive results and toxic doses are left out.

Tested on: BDF1 mice, B16 melanoma ip, median survival T/C
Test: NCI In Vivo Anticancer Drug Screen. Data for tumor model B16 Melanoma (intraperitoneal) in B6D2F1 (BDF1) mice
Details: endpoint: median survival time, higher = longer survival
Outline: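 Compounds were tested in mice carrying transplantable tumors. Survival or tumor size was recorded, and each value is the treated-group measurement (T) divided by that of the vehicle-treated control group (C).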

[1] = dose: 50.0 mg/kg/injection, schedule: Q01DX009 (ip), vehicle: saline
[2] = dose: 100.0 mg/kg/injection, schedule: Q01DX009 (ip), vehicle: Klucel (hydroxypropylcellulose) (HPC)
[3] = dose: 10.0 mg/kg/injection, schedule: Q01DX009 (ip), vehicle: saline
[4] = dose: 20.0 mg/kg/injection, schedule: Q01DX009 (ip), vehicle: saline
[5] = dose: 40.0 mg/kg/injection, schedule: Q01DX009 (ip), vehicle: saline
[6] = dose: 200.0 mg/kg/injection, schedule: Q01DX009 (ip), vehicle: Klucel (hydroxypropylcellulose) (HPC)
[7] = dose: 400.0 mg/kg/injection, schedule: Q01DX009 (ip), vehicle: Klucel (hydroxypropylcellulose) (HPC)
[8] = dose: 100.0 mg/kg/injection, schedule: Q01DX009 (ip), vehicle: saline with Tween-80
[9] = dose: 200.0 mg/kg/injection, schedule: Q01DX009 (ip), vehicle: saline with Tween-80
[10] = dose: 50.0 mg/kg/injection, schedule: Q01DX009 (ip), vehicle: Klucel (hydroxypropylcellulose) (HPC)

## Cc1ccc(NC(=O)COc2ccc(Cl)cc2)c([N+](=O)[O-])c1
dose: 75.0 mg/kg/injection, schedule: Q01DX009 (ip), vehicle: Klucel (hydroxypropylcellulose) (HPC)
  T/C: 95 % of control
dose: 150.0 mg/kg/injection, schedule: Q01DX009 (ip), vehicle: Klucel (hydroxypropylcellulose) (HPC)
  T/C: 97 % of control
dose: 300.0 mg/kg/injection, schedule: Q01DX009 (ip), vehicle: Klucel (hydroxypropylcellulose) (HPC)
  T/C: 90 % of control

## CC(O)CNCCNc1ccc(NCCNCC(C)O)c2c1C(=O)c1c(O)ccc(O)c1C2=O (configuration not stated)
dose: 0.5 mg/kg/injection, schedule: Q01DX009 (ip), vehicle: distilled water + Tween-80
  T/C: 150 % of control
dose: 1.0 mg/kg/injection, schedule: Q01DX009 (ip), vehicle: distilled water + Tween-80
  T/C: 163 % of control
dose: 2.0 mg/kg/injection, schedule: Q01DX009 (ip), vehicle: distilled water + Tween-80
  T/C: 178 % of control
dose: 4.0 mg/kg/injection, schedule: Q01DX009 (ip), vehicle: distilled water + Tween-80
  T/C: 222 % of control
dose: 8.0 mg/kg/injection, schedule: Q01DX009 (ip), vehicle: distilled water + Tween-80
  T/C: 222 % of control
dose: 16.0 mg/kg/injection, schedule: Q01DX009 (ip), vehicle: distilled water + Tween-80
  T/C: 222 % of control

## CN(Cc1cnc2nc(N)nc(N)c2n1)c1ccc(C(=O)N[C@@H](CCC(=O)O)C(=O)O)cc1
dose: 0.25 mg/kg/injection, schedule: Q01DX009 (ip), vehicle: saline
  T/C: 102 % of control
dose: 0.25 mg/kg/injection, schedule: Q01DX017 (ip), vehicle: saline
  T/C: 107 % of control
dose: 0.37 mg/kg/injection, schedule: Q01DX009 (ip), vehicle: sodium bicarbonate
  T/C: 93 % of control and 103 % of control
dose: 0.5 mg/kg/injection, schedule: Q01DX009 (ip), vehicle: sodium bicarbonate
  T/C: 92 % of control and 103 % of control (2×)
dose: 0.5 mg/kg/injection, schedule: Q01DX017 (ip), vehicle: saline
  T/C: 104 % of control
dose: 0.75 mg/kg/injection, schedule: Q01DX009 (ip), vehicle: sodium bicarbonate
  T/C: 104 % of control and 105 % of control
dose: 1.0 mg/kg/injection, schedule: Q01DX017 (ip), vehicle: saline
  T/C: 111 % of control
dose: 1.5 mg/kg/injection, schedule: Q01DX009 (ip), vehicle: saline
  T/C: 92 % of control
dose: 1.5 mg/kg/injection, schedule: Q01DX009 (ip), vehicle: sodium bicarbonate
  T/C: 98 % of control and 106 % of control
dose: 2.0 mg/kg/injection, schedule: Q01DX017 (ip), vehicle: saline
  T/C: 88 % of control
dose: 2.0 mg/kg/injection, schedule: Q04DX005 (ip), vehicle: saline
  T/C: 107 % of control
dose: 3.0 mg/kg/injection, schedule: Q01DX009 (ip), vehicle: sodium bicarbonate
  T/C: 94 % of control and 100 % of control
dose: 4.0 mg/kg/injection, schedule: Q04DX003 (ip), vehicle: saline
  T/C: 113 % of control
dose: 4.0 mg/kg/injection, schedule: Q04DX005 (ip), vehicle: saline
  T/C: 109 % of control
dose: 6.0 mg/kg/injection, schedule: Q01DX009 (ip), vehicle: sodium bicarbonate
  T/C: 90 % of control
dose: 8.0 mg/kg/injection, schedule: Q04DX003 (ip), vehicle: saline
  T/C: 109 % of control
dose: 8.0 mg/kg/injection, schedule: Q04DX005 (ip), vehicle: saline
  T/C: 104 % of control
dose: 16.0 mg/kg/injection, schedule: Q04DX003 (ip), vehicle: saline
  T/C: 109 % of control
dose: 16.0 mg/kg/injection, schedule: Q04DX005 (ip), vehicle: saline
  T/C: 97 % of control
dose: 32.0 mg/kg/injection, schedule: Q01DX001 (ip), vehicle: saline
  T/C: 121 % of control
dose: 32.0 mg/kg/injection, schedule: Q04DX003 (ip), vehicle: saline
  T/C: 106 % of control
dose: 128.0 mg/kg/injection, schedule: Q01DX001 (ip), vehicle: saline
  T/C: 123 % of control

## COc1ccccc1N1C(N)=NC(N)=NC1(C)C
dose: 25.0 mg/kg/injection, schedule: Q01DX009 (ip), vehicle: saline
  T/C: 102 % of control
[1]
  T/C: 108 % of control

## ClC1=C(Cl)C(Cl)(Cl)C(Cl)(Cl)C1(Cl)Cl
[2]
  T/C: 103 % of control

## c1ccc(OCCC[P+](c2ccccc2)(c2ccccc2)c2ccccc2)cc1
dose: 5.0 mg/kg/injection, schedule: Q01DX009 (ip), vehicle: saline
  T/C: 107 % of control
[3]
  T/C: 105 % of control
[4]
  T/C: 95 % of control
[5]
  T/C: 97 % of control

## O=S(=O)(O)O.[NH-]CC1(C[NH-])CCCCC1.[Pt+2]
dose: 8.0 mg/kg/injection, schedule: Q04DX003 (ip), vehicle: dextrose
  T/C: 161 % of control

## Oc1ccc2ccc3[nH]cnc3c2c1
dose: 50.0 mg/kg/injection, schedule: Q04DX003 (ip), vehicle: Klucel (hydroxypropylcellulose) (HPC)
  T/C: 100 % of control
dose: 100.0 mg/kg/injection, schedule: Q04DX003 (ip), vehicle: Klucel (hydroxypropylcellulose) (HPC)
  T/C: 105 % of control

## Cc1cc(C)c(NC(=O)Nc2cccc(Cl)c2)c(C)c1
[2]
  T/C: 88 % of control
[6]
  T/C: 94 % of control

## NCOC(=O)Cc1ccc(Br)cc1
[2]
  T/C: 97 % of control
[6]
  T/C: 97 % of control
[7]
  T/C: 89 % of control

## Cc1c2ccnc(C(N)=O)c2c(C)c2c1[nH]c1ccccc12
dose: 100.0 mg/kg/injection, schedule: Q04DX003 (ip), vehicle: distilled water + Tween-80
  T/C: 100 % of control
dose: 200.0 mg/kg/injection, schedule: Q04DX003 (ip), vehicle: distilled water + Tween-80
  T/C: 114 % of control

## CC(=O)CC(=O)Nc1ccc(C(=O)O)c(O)c1
[2]
  T/C: 86 % of control
[6]
  T/C: 89 % of control

## CCOc1ccc(N=Nc2ccc(N)cc2N)cc1
[2]
  T/C: 101 % of control
[6]
  T/C: 106 % of control
[7]
  T/C: 108 % of control

## O=C1c2ccccc2S(=O)c2ccccc21
[2]
  T/C: 97 % of control
[6]
  T/C: 93 % of control

## CCC(C)C(C(=O)O)c1ccccc1 (configuration not stated)
[8]
  T/C: 107 % of control
[9]
  T/C: 99 % of control
dose: 400.0 mg/kg/injection, schedule: Q01DX009 (ip), vehicle: saline with Tween-80
  T/C: 93 % of control

## CCOC(=O)CCCN(c1sc(C)c(C)c1C(=O)OCC)S(=O)(=O)c1ccc(C)cc1
dose: 50.0 mg/kg/injection, schedule: Q04DX003 (ip), vehicle: saline with Tween-80
  T/C: 111 % of control
dose: 100.0 mg/kg/injection, schedule: Q04DX003 (ip), vehicle: saline with Tween-80
  T/C: 105 % of control
dose: 200.0 mg/kg/injection, schedule: Q04DX003 (ip), vehicle: saline with Tween-80
  T/C: 111 % of control
dose: 400.0 mg/kg/injection, schedule: Q04DX003 (ip), vehicle: saline with Tween-80
  T/C: 100 % of control

## C[C@@H]1C[C@@]2(O[C@@H]2C)C(=O)O[C@@H]2CCN3CC=C(COC(=O)[C@]1(C)O)[C@H]23
[3]
  T/C: 102 % of control
[4]
  T/C: 102 % of control
[5]
  T/C: 104 % of control

## CCCCNc1ccc(C(=O)O)cc1
dose: 100.0 mg/kg/injection, schedule: Q04DX003 (ip), vehicle: gum acacia
  T/C: 97 % of control
dose: 200.0 mg/kg/injection, schedule: Q04DX003 (ip), vehicle: gum acacia
  T/C: 97 % of control
dose: 400.0 mg/kg/injection, schedule: Q04DX003 (ip), vehicle: gum acacia
  T/C: 86 % of control

## O=NN(CCF)C(=O)NCCO
dose: 1.88 mg/kg/injection, schedule: Q01DX001 (ip), vehicle: saline
  T/C: 115 % of control
dose: 3.75 mg/kg/injection, schedule: Q01DX001 (ip), vehicle: saline
  T/C: 114 % of control
dose: 15.0 mg/kg/injection, schedule: Q01DX001 (ip), vehicle: saline
  T/C: 172 % of control
dose: 30.0 mg/kg/injection, schedule: Q01DX001 (ip), vehicle: saline
  T/C: 231 % of control
dose: 60.0 mg/kg/injection, schedule: Q01DX001 (ip), vehicle: saline
  T/C: 212 % of control

## CN(C)N=Nc1c(Cl)cc(Cl)cc1C(N)=O
[8]
  T/C: 119 % of control
[9]
  T/C: 115 % of control

## C1CC[N-]CC1.CC(=N\O)/C(C)=N/O.CC(=N\O)/C(C)=N/O.C[CH-]CC.[Co+2]
dose: 25.0 mg/kg/injection, schedule: Q01DX009 (ip), vehicle: Klucel (hydroxypropylcellulose) (HPC)
  T/C: 102 % of control
[10]
  T/C: 108 % of control

## CC(C)CCOC(=O)C(O)c1ccccc1 (configuration not stated)
[2]
  T/C: 87 % of control
[6]
  T/C: 93 % of control
[7]
  T/C: 87 % of control

## CN(C)CC1CCCCN1 (configuration not stated)
[1]
  T/C: 100 % of control
dose: 100.0 mg/kg/injection, schedule: Q01DX009 (ip), vehicle: saline
  T/C: 100 % of control
dose: 200.0 mg/kg/injection, schedule: Q01DX009 (ip), vehicle: saline
  T/C: 100 % of control

## O=C1NC(c2ccccc2Cl)Nc2ccccc21 (configuration not stated)
[10]
  T/C: 103 % of control
[2]
  T/C: 98 % of control
[6]
  T/C: 98 % of control
[7]
  T/C: 108 % of control
